Test results: ChEMBL document CHEMBL1201862, “PubChem BioAssay data set” (2004)
Activity calls are given as the source filed them.

Molecular target: Cytochrome P450 2D6 (Homo sapiens, UniProt P10635);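 also: CYP2D6 member of a cytochrome P450 panel assay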
Settings: not given

Sequence of Cytochrome P450 2D6 (P10635 whole entry): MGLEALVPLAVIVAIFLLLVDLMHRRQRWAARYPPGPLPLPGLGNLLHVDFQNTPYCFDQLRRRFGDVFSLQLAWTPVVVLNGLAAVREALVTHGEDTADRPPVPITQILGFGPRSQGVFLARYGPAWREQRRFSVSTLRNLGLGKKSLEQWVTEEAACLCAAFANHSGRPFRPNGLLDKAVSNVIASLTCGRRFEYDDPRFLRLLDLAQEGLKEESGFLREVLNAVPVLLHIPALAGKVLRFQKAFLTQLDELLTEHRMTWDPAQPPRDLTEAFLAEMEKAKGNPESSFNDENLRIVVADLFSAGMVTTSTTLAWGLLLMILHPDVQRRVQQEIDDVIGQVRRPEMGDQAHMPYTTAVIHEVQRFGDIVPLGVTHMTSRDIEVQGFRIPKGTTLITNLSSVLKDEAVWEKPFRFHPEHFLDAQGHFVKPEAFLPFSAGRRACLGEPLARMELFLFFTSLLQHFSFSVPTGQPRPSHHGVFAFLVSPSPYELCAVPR

| Compound | AC50 |
| --- | --- |
| Cc1ccc(C(=O)NN2CCOCC2)cc1 | 0.224 µM (inconclusive) |
| O=C(Cc1ccc(Cl)c(Cl)c1)OCCN1CCCC1 | 31.6 µM (inconclusive) |
| Cc1ccc(C)c(S(=O)(=O)N2CCC(c3nc(O)c4nnn(Cc5ccc(F)cc5)c4n3)CC2)c1 | 14.1 µM (inconclusive) |
| CN(C)C(=O)c1ccc(-c2cc(NCc3ccccc3)ncn2)cc1 | 39.8 µM (inconclusive) |
| COc1cccc(-c2nc(Nc3ccncc3)c3ccccc3n2)c1 | 25.1 µM (inconclusive) |
| Cc1ccc(OCC(=O)Nn2cnc3ccccc32)cc1 | 10 µM (inconclusive) |
| CCN(CC)C(=O)CSc1nc2ccc(NC(=O)CSc3nnc(COc4ccccc4C)n3C)cc2s1 | 14.1 µM (inconclusive) |

Continued, values first:

| AC50 | Compound |
| --- | --- |
| 2.51 µM (inconclusive) | CCN(CC)C[C@@H](O)CN1CCCCc2nc(C)c(C)cc21 |
| 25.1 µM (inconclusive) | CS(=O)(=O)Nc1cccc(-c2cncnc2Nc2ccccc2)c1 |
| 31.6 µM (inconclusive) | COc1cccc(-c2ccc3ncnc(N4CCOCC4)c3c2)c1 |
| 31.6 µM (inconclusive) | Cc1cccc(CNc2ncncc2-c2cccc(C#N)c2)c1 |
| 28.2 µM (inconclusive) | CN1CC(c2ccccn2)C2(SC(=S)N(Cc3ccccc3)C2=O)C12C(=O)Nc1ccccc12 (centres undefined) |
| 3.16 µM (inconclusive) | CC(C)NCC[C@@H](O)c1cc2ccccc2o1 |
| 12.6 µM (inconclusive) | COC(=O)[C@@]1(Cc2ccc(OC)cc2)[C@H]2c3cc(C(=O)N(C)C)n(Cc4ccc(C)c(F)c4F)c3C[C@H]2CN1C(=O)c1ccccc1 |

Molecular target: T1, Cytochrome P450 1A2 (Homo sapiens, UniProt P05177);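 also: PubChem cytochrome P450 panel assay, CYP1A2 panel member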
T1 sequence (P05177 whole entry): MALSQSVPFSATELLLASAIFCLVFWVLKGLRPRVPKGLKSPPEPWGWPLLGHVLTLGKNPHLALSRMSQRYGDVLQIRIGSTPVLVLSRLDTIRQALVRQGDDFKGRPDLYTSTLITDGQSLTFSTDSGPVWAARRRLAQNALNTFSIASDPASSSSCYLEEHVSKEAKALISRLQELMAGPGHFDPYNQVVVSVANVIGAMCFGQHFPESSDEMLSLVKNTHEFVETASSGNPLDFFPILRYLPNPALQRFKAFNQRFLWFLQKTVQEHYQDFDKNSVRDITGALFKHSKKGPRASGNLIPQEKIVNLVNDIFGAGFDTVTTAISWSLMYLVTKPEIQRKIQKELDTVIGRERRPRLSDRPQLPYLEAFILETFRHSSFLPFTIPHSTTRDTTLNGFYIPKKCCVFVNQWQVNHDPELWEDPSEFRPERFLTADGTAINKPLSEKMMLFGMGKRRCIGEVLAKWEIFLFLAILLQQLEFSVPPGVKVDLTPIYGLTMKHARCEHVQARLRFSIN
Settings: not given

| Compound | AC50 |
| --- | --- |
| CCCS(=O)(=O)N1CCCC(C(=O)NCc2cccnc2)C1 (centres undefined) | 0.00631 µM (inconclusive) |
| CCCc1cc2c(n1CCc1ccc(Cl)cc1)C(C)C1CN(C(=O)c3ccccc3)C(C)(C(=O)OC)C21 (centres undefined) | 25.1 µM (inconclusive) |
| CN(C)C(=O)c1ccc(-c2cc(NCc3ccccc3)ncn2)cc1 | 12.6 µM (inconclusive) |
| O=c1c(-c2cc(F)cc(F)c2)nc2cnc(N3CCOCC3)nc2n1C[C@H]1CCCO1 | 2.51 µM (inconclusive) |

Results, then the molecule that gave them:

| AC50 | Compound |
| --- | --- |
| 15.8 µM (inconclusive) | CCCCC(=O)NC(Nc1cc(C)ccn1)(C(=O)OCC)C(F)(F)F (centres undefined) |
| 14.1 µM (inconclusive) | Cn1c(COc2nnc(-c3ccc(Cl)cc3)c3ccccc23)nc2ccccc21 |
| 25.1 µM (inconclusive) | COC(=O)[C@@]1(Cc2ccc(F)cc2)[C@H]2c3cc(C(=O)N(C)C)n(CC4CC4)c3C[C@H]2CN1C(=O)c1ccccc1 |
| 12.6 µM (inconclusive) | COc1ccccc1C(=O)N/C(=C/c1ccc(Br)cc1)C(=O)NCC(=O)O |
| 22.4 µM (inconclusive) | COc1ccc(CCNC(=O)c2ccccc2NC(=O)c2ccco2)cc1OC |

Tested on: not listed separately
Test: viability of uninfected HEp-2 cells – cell-based, HTS, cytotoxicity control for RSV inhibitor project, dose response (AID 2410)
Assay type: functional
Settings: human respiratory syncytial virus

| Compound | CC50 |
| --- | --- |
| CCNc1oc(-c2cccc3ccccc23)nc1C#N | > 50 µM (active) |
| CCC(=O)Nc1nnc(SCC(=O)c2ccc3c(c2)Cc2ccccc2-3)s1 | 42 µM (active) |
| Cn1c2c(c3ccccc31)CC/C2=N\O | 38.5 µM (active) |
| OC(CNCCc1ccc(Cl)cc1)COc1cc(Cl)ccc1Cl (centres undefined) | 15.6 µM (active) |

Molecular target: Cytochrome P450 2C19 (Homo sapiens, UniProt P33261)
Sequence (P33261 whole entry): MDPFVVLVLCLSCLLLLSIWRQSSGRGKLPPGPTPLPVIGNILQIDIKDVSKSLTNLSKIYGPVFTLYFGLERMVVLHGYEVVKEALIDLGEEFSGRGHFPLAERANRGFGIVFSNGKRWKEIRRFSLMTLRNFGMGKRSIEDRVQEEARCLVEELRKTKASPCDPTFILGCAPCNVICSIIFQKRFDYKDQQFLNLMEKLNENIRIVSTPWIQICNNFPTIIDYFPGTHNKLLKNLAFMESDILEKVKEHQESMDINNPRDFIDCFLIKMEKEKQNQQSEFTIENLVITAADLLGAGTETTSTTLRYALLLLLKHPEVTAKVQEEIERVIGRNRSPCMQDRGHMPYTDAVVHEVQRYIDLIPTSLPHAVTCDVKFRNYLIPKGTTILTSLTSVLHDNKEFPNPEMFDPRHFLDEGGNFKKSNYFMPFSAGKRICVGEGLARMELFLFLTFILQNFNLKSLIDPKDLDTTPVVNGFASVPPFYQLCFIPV
Test: Cytochrome panel assay with activity outcomes. Panel member name: p450-cyp2c19 Compounds with AC50 equal or less than 10 uM are considered active
Assay type: functional
Settings: read-out: AC50

| AC50 | Compound |
| --- | --- |
| 15.8 µM (inconclusive) | CCCS(=O)(=O)N1CCCC(C(=O)NCc2cccnc2)C1 (centres undefined) |
| 14.1 µM (inconclusive) | Cn1c(COc2nnc(-c3ccc(Cl)cc3)c3ccccc23)nc2ccccc21 |

Molecular target: T2, Heat shock factor protein 1 (Mus musculus, UniProt P38532)
T2 sequence (P38532 whole entry): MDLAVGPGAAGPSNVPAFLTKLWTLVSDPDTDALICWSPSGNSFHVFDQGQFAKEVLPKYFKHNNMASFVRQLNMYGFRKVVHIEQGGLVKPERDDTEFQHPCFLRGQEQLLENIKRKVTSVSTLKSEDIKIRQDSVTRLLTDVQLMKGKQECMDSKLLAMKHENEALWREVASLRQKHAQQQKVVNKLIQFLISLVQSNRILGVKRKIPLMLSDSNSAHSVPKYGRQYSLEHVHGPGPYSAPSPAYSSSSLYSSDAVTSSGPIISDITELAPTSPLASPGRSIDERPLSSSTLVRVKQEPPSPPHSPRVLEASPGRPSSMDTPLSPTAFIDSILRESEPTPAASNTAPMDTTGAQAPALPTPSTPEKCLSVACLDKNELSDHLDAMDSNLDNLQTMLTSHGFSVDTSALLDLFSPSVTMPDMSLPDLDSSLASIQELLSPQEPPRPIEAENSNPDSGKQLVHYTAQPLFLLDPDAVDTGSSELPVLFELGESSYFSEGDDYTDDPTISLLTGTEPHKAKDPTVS
Test: decrease of HSF1-responsive luciferase luminescence – cell-based, NIH3T3, dose retest, confirmation (AID 2382);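 also: NIH3T3 fibroblasts with HSF1-driven luciferase reporter stressed by proteasome inhibitor MG132; luminescence from HSF1-driven luciferase expression after 8 hours of MG132 stress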
Assay type: functional
Settings: not given

| Compound | EC50 |
| --- | --- |
| COc1ccc(Cl)cc1S(=O)(=O)N1CCC(C(=O)NCCc2ccccc2)CC1 | > 195 µM (not active) |
| Cc1ccc2nc(-c3cccc(Br)c3)cc(C(=O)NCC3CCCO3)c2c1 (centres undefined) | > 195 µM (not active) |
| Cc1cc(C)c(NC(=O)CSc2nncn2-c2cccnc2)c(C)c1 | > 195 µM (not active) |
| CCOc1cc(/C=C2\C(=N)N3N=C(C)SC3=NC2=O)ccc1OCCOc1ccccc1 | > 195 µM (not active) |
| CCc1ccc(C(=O)COC(=O)CNC(=O)c2cccs2)cc1 | > 195 µM (not active) |
| CCOC(=O)Cc1csc(NC(=O)Nc2cccs2)n1 | > 195 µM (not active) |

The next lines start with the values.

| EC50 | Compound |
| --- | --- |
| > 195 µM (not active) | O=C(CN1CCN(C(c2ccccc2)c2ccccc2)CC1)N1CCOCC1 |
| > 195 µM (not active) | Cc1cccc(CS(=O)(=O)Cc2ccc(C(=O)NCc3cccs3)o2)c1 |
| 37.9 µM (active) | COc1ccc(-n2c(C)c(C)c3c(N)ncnc32)cc1 |
| > 195 µM (not active) | CC(C)NC(=O)N(O)C1N(Cc2ccc3c(c2)OCO3)C(=S)SC1(C)C (centres undefined) |
